One assay addresses T1, human Cyclin E/CDK2 (Homo sapiens, UniProt P24941).
T1 construct: made in house; host or cells: insect cells
The assay can be described thus: CDK2 FlashPlate Assay. Format: biochemical. Conditions: inhibition of Rb phosphorylation, 33P-ATP, 25 minutes at room temperature. How it is done:
To determine inhibition of CDK2 activity, purified recombinant retinoblastoma (Rb) protein was coated on 96 well FlashPlates (New England Nuclear, Boston, Mass.). […] Recombinant active human Cyclin E/CDK2 complexes were partially purified from extracts of insect cells. […] Plates were incubated for 25 minutes at room temperature with shaking, then washed and counted in the Topcount scintillation counter (Packard Instrument Co., Downers Grove, Ill.). Dilutions of test compounds were tested in duplicate in each assay. The percent inhibition of Rb phosphorylation, which is a measure of the inhibition of CDK2 activity, was determined according to the following formula: [formula]
where “test compound” refers to the average counts per minute of the test duplicates, “nonspecific” refers to the average counts per minute when no Cyclin E/CDK2 was added, and “total” refers to the average counts per minute when no compound was added.

Assay [1] concerns MDA-MB435 breast carcinoma cell line. The assay can be described thus: Tetrazolium dye proliferation assay, MDA-MB435. To be noted: MTT, 5 days post addition of test compound, 2000 cells per well. Format: cell-based. On the procedure: (§1) The cell lines used were MDA-MB435, a breast carcinoma dell line and RKO, a colon carcinoma cell line.
(§2) Teh estrogen receptor negative epithelial breast carcinoma line (MDA-MB435) was purchased from American Type Cell Culture Collection (ATCC; Rockville, Md.) and was grown in the medium recommended by ATCC. For analysis of the test compounds on growth of these cells, the cells were plated at 2000 cells per well in a 96-well tissue culture plate, and were incubated overnight at 37° C. with 5% CO2. The next day, the test compounds were dissolved in 100% dimethyl sulfoxide (DMSO) to yield a 10 mM stock solution. […] The compounds were then serially diluted in medium with 1.2% DMSO. One-fourth final volume of the diluted compounds was transferred to 96 well plates. Test compounds were assayed in duplicate. DMSO was added to a row of “control cells” such that the final concentration of DMSO in each well was 0.3%. Wells to which no cells were added served as the “blank.” Wells to which no inhibitor was added served as “no inhibitor control”. The plates were returned to the incubator, and 5 days post addition of test compound, were analyzed as described below.
(§3) 3-(4,5-Dimethylthiazole-2-yl)-2,5-diphenyl-2H-tetrazolium bromide (thiazolyl blue; MTT) was added to each well to yield a final concentration of 1 mglmL. The plates were then incubated at 37° C. for 3 hours. The plates were centrifuged at 1000 rpm for 5 minutes prior to aspiration of the MTT-containing medium. The MTT-containing medium was then removed and 100 μL 100% EtOH was added to each well to dissolve the resulting formazan metabolite. To ensure complete dissolution, plates were shaken for 15 minutes at room temperature. Absorbencies were read in a microliter plate reader (Molecular Dynamics) at a wavelength of 570 nm with a 650 nm reference. Percent inhibition was calculated by subtracting the absorbency of the blank (no cell) wells from all wells, then subtracting the division of the average absorbency of each test duplicate by the average of the controls from 1.00. Inhibitory concentrations (IC50) were determined from the linear regression of a plot of the logarithm of the concentration versus the percent inhibition.

In assay [2] the test system is RKO colon carcinoma cell line. The assay can be described thus: Tetrazolium dye proliferation assay, RKO. It counts as cell-based. Conditions: MTT, 5 days post addition of test compound, 500 cell per well. How it is done:
as §1, §2, §3
The colon carcinoma line RKO was also obtained from the ATCC and was tested according to the same protocol provided above except that the cell line RKO was plated at 500 cell per well.

[3] abbreviates: Homo sapiens, MDA-MB-435, 120 h.

Structures can show the parent of a compound that is named as a salt.

Consider `NCCOc1cc(-c2ccc[nH]2)c2c3c(ccc(F)c13)NC2=O` [Example 20, 5-(2-Amino-ethoxy)-6-fluoro-3-(1H-pyrrol-2-yl)-1H-benzo[cd]indol-2-one methanesulfonic acid salt], for which the IC50 (as a rule, the concentration that gives 50% inhibition) on human Cyclin E/CDK2 was no more than 10 µM.
As to `Cc1cc(-c2ccc[nH]2)c2c3c(ccc(F)c13)NC2=O` [Example 25, 6-Fluoro-5-methyl-3-(1H-pyrrol-2-yl)-1H-benzo[cd]indol-2-one], at human Cyclin E/CDK2, the half-maximal inhibitory concentration (IC50) was no more than 10 µM.
`NCCCNc1cc(-c2ccc[nH]2)c2c3c(ccc(F)c13)NC2=O` [Example 21, 5-(3-Amino-propylamino)-6-fluoro-3-(1H-pyrrol-2-yl)-1H-benzo[cd]indol-2-one acetic acid salt]: the 50% inhibitory concentration (IC50) against human Cyclin E/CDK2 is no more than 10 µM; in assay [1] (setting [3]), no more than 10 µM; in assay [2] (Colon carcinoma cell, 120 h), no more than 10 µM.
Take `NCC[S+]([O-])c1cc(-c2ccc[nH]2)c2c3c(ccc(F)c13)NC2=O` (centres unmarked) [Example 43, 5-(2-Amino-ethanesulfinyl)-6-fluoro-3-(1H-pyrrol-2-yl)-1H-benzo[cd]indol-2-one hydrochloride salt]: the IC50 in assay [1] and in assay [2] was no more than 10 µM throughout.
On to `O=C1Nc2ccc(F)c3c(S(=O)(=O)CCO)cc(-c4ccc[nH]4)c1c23` [Example 38, 6-Fluoro-5-(2-hydroxy-ethanesulfonyl)-3-(1H-pyrrol-2-yl)-1H-benzo[cd]indol-2-one], for which the IC50 was no more than 10 µM at human Cyclin E/CDK2; no more than 10 µM in assay [1] (setting [3]); no more than 10 µM in assay [2] (Colon carcinoma cell, 120 h).
Take `O=C1Nc2ccc(F)c3c(N4CC[C@@H](O)C4)cc(-c4ccc[nH]4)c1c23` [Example 32]: the IC50 is no more than 10 µM on human Cyclin E/CDK2; no more than 10 µM in assay [1] (setting [3]); no more than 10 µM in assay [2] (Colon carcinoma cell, 120 h).
`CCc1cc(-c2ccc[nH]2)c2c3c(ccc(F)c13)NC2=O` [Example 27, 5-Ethyl-6-fluoro-3-(1H-pyrrol-2-yl)-1H-benzo[cd]indol-2-one] had an IC50 against human Cyclin E/CDK2 of no more than 10 µM.
As to `COc1cc(-c2ccc[nH]2)c2c3c(ccc(F)c13)NC2=O` [Example 13, 6-Fluoro-5-methoxy-3-(1H-pyrrol-2-yl)-1H-benzo[cd]indol-2-one], the concentration for half-maximal inhibition (IC50) is no more than 10 µM at human Cyclin E/CDK2; no more than 10 µM in assay [1] (setting [3]); no more than 10 µM in assay [2] (Colon carcinoma cell, 120 h).
`CC(=O)NCCNc1cc(-c2ccc[nH]2)c2c3c(ccc(F)c13)NC2=O` [Example 29, N-[2-[6-Fluoro-2oxo-3-(1H-pyrrol-2-yl)-1,2-dihydro-benzo[cd]indol-5-ylamino]-ethyl]-acetamide]: the IC50 at human Cyclin E/CDK2 was no more than 10 µM.
As to `O=C1Nc2ccc(F)c3c2C1=C(c1ccc[nH]1)CC3` [Example 6, 6-fluoro-3-(1H-pyrrol-2-yl)-4,5-dihydro-1H-benzo[cd]indol-2-one], the IC50 is no more than 10 µM at human Cyclin E/CDK2; no more than 10 µM in assay [1] (setting [3]); no more than 10 µM in assay [2] (Colon carcinoma cell, 120 h).
With `O=C1Nc2ccc(F)c3c(N4CCC(O)CC4)cc(-c4ccc[nH]4)c1c23` [Example 33, 6-Fluoro-5-(4-hydroxy-piperidin-1-yl)-3-(1H-pyrrol-2-yl)-1H-benzo[cd]indol-2-one], the IC50 against human Cyclin E/CDK2 is no more than 10 µM; in assay [1] (setting [3]), no more than 10 µM; in assay [2] (Colon carcinoma cell, 120 h), no more than 10 µM.
With `O=C1Nc2ccc(F)c3c(SCCO)cc(-c4ccc[nH]4)c1c23` [Example 36, 6-Fluoro-5-(2-hydroxyethylsulfanyl)-3-(1H-pyrrol-2-yl)-1H-benzo[cd]indol-2-one], the IC50 against human Cyclin E/CDK2 is no more than 10 µM; in assay [1] (setting [3]), no more than 10 µM; in assay [2] (Colon carcinoma cell, 120 h), no more than 10 µM.
As for `Cc1c[nH]c(-c2cc(SCCN)c3c(F)ccc4c3c2C(=O)N4)c1C` [Example 50, 5-(2-Amino-ethylsulfanyl)-6-fluoro-3-(3,4-dimethyl-1H-pyrrol-2-yl)-1H-benzo[cd]indol-2-one trifluoroacetic acid salt], the concentration for half-maximal inhibition (IC50) on human Cyclin E/CDK2 is no more than 10 µM; in assay [1] (setting [3]), no more than 10 µM; in assay [2] (Colon carcinoma cell, 120 h) it was no more than 10 µM.
At human Cyclin E/CDK2, `O=C1Nc2ccc(F)c3c(N4CCNC4=O)cc(-c4ccc[nH]4)c1c23` [Example 28, 6-Fluoro-5-(2-oxo-imidazolidin-1-yl)-3-(1H-pyrrol-2-yl)-1H-benzo[cd]indol-2-one] showed a half-inhibitory concentration (IC50) of no more than 10 µM.
In the case of `O=C1Nc2ccc(F)c3c(NCCO)cc(-c4ccc[nH]4)c1c23` [Example 15, 6-Fluoro-5-(2-hydroxy-ethylamino)-3-(1H-pyrrol-2-yl)-1H-benzo[cd]indol-2-one], the IC50 against human Cyclin E/CDK2 was no more than 10 µM; in assay [1] (setting [3]), no more than 10 µM; in assay [2] (Colon carcinoma cell, 120 h), no more than 10 µM.
For the compound `O=C1Nc2ccc(F)c3c(N4CCCC(O)C4)cc(-c4ccc[nH]4)c1c23` (centres unmarked) [Example 35, 6-Fluoro-5-(3-hydroxy-piperidin-1-yl)-3-(1H-pyrrol-2-yl)-1H-benzo[cd]indol-2-one], the half-inhibitory concentration (IC50) was no more than 10 µM in assay [1] (setting [3]) and no more than 10 µM in assay [2] (Colon carcinoma cell, 120 h).
With `O=C1Nc2ccc(F)c3ccc(-c4ccc[nH]4)c1c23` [Example 7, 6-Fluoro-3-(1H-pyrrol-2-yl)-1H-benzo[cd]indol-2-one], the IC50 against human Cyclin E/CDK2 is no more than 10 µM; in assay [1] (setting [3]), no more than 10 µM; in assay [2] (Colon carcinoma cell, 120 h) it was no more than 10 µM.
`O=C1Nc2ccc(F)c3c([S+]([O-])CCO)cc(-c4ccc[nH]4)c1c23` (centres unmarked) [Example 37, 6-Fluoro-5-(2-hydroxy-ethanesulfinyl)-3-(1H-pyrrol-2-yl)-1H-benzo[cd]indol-2-one]: the IC50 in assay [2] (Colon carcinoma cell, 120 h) is no more than 10 µM.
With `NCCS(=O)(=O)c1cc(-c2ccc[nH]2)c2c3c(ccc(F)c13)NC2=O` [Example 44, 5-(2-Amino-ethanesulfonyl)-6-fluoro-3-(1H-pyrrol-2-yl)-1H-benzo[cd]indol-2-one], the IC50 is no more than 10 µM at human Cyclin E/CDK2; no more than 10 µM in assay [1] (setting [3]); no more than 10 µM in assay [2] (Colon carcinoma cell, 120 h).
As for `NCCSc1cc(-c2ccc[nH]2)c2c3c(ccc(F)c13)NC2=O` [Example 40, 5-(2-Amino-ethylsulfanyl)-6-fluoro-3-(1H-pyrrol-2-yl)-1H-benzo[cd]indol-2-one], the IC50 against human Cyclin E/CDK2 is no more than 10 µM; in assay [1] (setting [3]), no more than 10 µM; in assay [2] (Colon carcinoma cell, 120 h), no more than 10 µM.
On to `NCC[S+]([O-])c1cc(-c2ccc[nH]2)c2c3c(ccc(F)c13)NC2=O` (centres unmarked) [Example 42, 5-(2-Amino-ethanesulfinyl)-6-fluoro-3-(1H-pyrrol-2-yl)-1H-benzo[cd]indol-2-one], for which the IC50 is no more than 10 µM in assay [1] (setting [3]) and no more than 10 µM in assay [2] (Colon carcinoma cell, 120 h).
The compound `CCN(CC)CCNc1cc(-c2ccc[nH]2)c2c3c(ccc(F)c13)NC2=O` [Example 31, 5-(2-Diethylamino-ethylamino)-6-fluoro-3-(1H-pyrrol-2-yl)-1H-benzo[cd]indol-2-one] showed an IC50 against human Cyclin E/CDK2 of no more than 10 µM.
Consider `O=C1Nc2ccc(F)c3c(N4CCCC(CO)C4)cc(-c4ccc[nH]4)c1c23` (centres unmarked) [Example 34, 6-Fluoro-5-(3-hydroxymethyl-piperidin-1-yl)-3-(1H-pyrrol-2-yl)-1H-benzo[cd]indol-2one], for which the half-maximal inhibitory concentration (IC50) is no more than 10 µM in assay [1] (setting [3]) and no more than 10 µM in assay [2] (Colon carcinoma cell, 120 h).
The compound `CCC(C)c1cc(-c2ccc[nH]2)c2c3c(ccc(F)c13)NC2=O` (racemic) [Example 26, (rac)-5-sec-Butyl-6-fluoro-3-(1H-pyrrol-2-yl)-1H-benzo[cd]indol-2-one] gave a half-maximal inhibitory concentration (IC50) against human Cyclin E/CDK2 of no more than 10 µM.
`CCOc1cc(-c2ccc[nH]2)c2c3c(ccc(F)c13)NC2=O` [Example 14, 5-Ethoxy-6-fluoro-3-(1H-pyrrol-2-yl)-1H-benzo[cd]indol-2-one] yielded a concentration for half-maximal inhibition (IC50) on human Cyclin E/CDK2 of no more than 10 µM.
Take `NCCOc1cc(-c2ccc[nH]2)c2c3c(ccc(F)c13)NC2=O` [Example 19, 5-(2-Amino-ethoxy)-6-fluoro-3-(1H-pyrrol-2-yl)-1H-benzo[cd]indol-2-one]: the IC50 was no more than 10 µM in assay [1] (setting [3]) and no more than 10 µM in assay [2] (Colon carcinoma cell, 120 h).
As for `O=C1Nc2ccc(F)c3c(OCCCO)cc(-c4ccc[nH]4)c1c23` [Example 17, 6-Fluoro-5-(3-hydroxy-propoxy)-3-(1H-pyrrol-2-yl)-1H-benzo[cd]indol-2-one], the IC50 against human Cyclin E/CDK2 was no more than 10 µM.

For the origin of these results see patent US6531598B1, “Naphthostyrils” (Hoffmann-La Roche Inc., priority 2001, dated 2003).
